Measured values published in patent US12453708B2, “Aminonaphthoquinone compounds for treatment and/or prevention of fibrosis diseases” (CALGENT BIOTECHNOLOGY CO., LTD., priority 2015, dated 2025).

What was measured:
[1] = tested on: TGF-β-induced collagen expression in WI-38 cells; assay: TGF-β-induced collagen expression in WI-38 cells (Western blot, immunofluorescence); format: cell-based, human; details: WI-38 lung fibroblasts, 0.3, 1, 3 or 10 μM, TGF-β (10 ng/mL)
Method: (§1) FIGS. 4 (A), (B) and (C) show the effect of L056 on TGF-β-induced collagen expression in WI-38 cells. WI-38 lung fibroblasts were incubated with different concentrations of L056 (0.3, 1, 3 or 10 μM) for 30 min before and during incubation for 2 h with TGF-β (10 ng/mL). […] (A), Western blot plot; (B), Quantitative assay of Western blot; (C), Immunofluorescence plot. WI-38 cells, a normal human embryonic lung fibroblast cell line, were obtained from American Type Culture Collection (Manassas, VA). Cells were grown in MEM nutrient mixture, containing 10% FCS, 2 mM L-glutamine, 0.1 mM NEAA, 1 mM sodium pyruvate, 50 U/ml penicillin G, and 100 µg/ml streptomycin, in a humidified 37° C. incubator with 5% CO2 Cells were used between passages 18 and 30 for all experiments. After reaching confluence, cells were seeded onto 6-cm dishes for immunoblotting. Western blot analyses were performed as described previously (Chen B C, Chang Y S, Kang J C, Hsu M J, Sheu J R, Chen T L, et al. Peptidoglycan induces nuclear factor-kappaB activation and cyclooxygenase-2 expression via Ras, Raf-1, and ERK in RAW 264.7 macrophages. J Biol Chem 2004; 279:20889-97). […] The immunoreactivity was detected using enhanced chemiluminescence (ECL) following the manufacturer's instructions. Quantitative data were obtained using a computing densitometer with scientific imaging systems (Kodak, Rochester, NY). […]

[2] = tested on: TGF-β-induced fibronectin expression in WI-38 cells; assay: TGF-β-induced fibronectin expression in WI-38 cells (Western blot, immunofluorescence); format: cell-based, human; details: WI-38 lung fibroblasts, 0.3, 1, 3 or 10 μM for 30 min before and during incubation with TGF-β (10 ng/mL)
Method: as §1, with “FIGS. 6” for “FIGS. 4”, “TGF-β-induced fibronectin” for “TGF-β-induced collagen”

[3] = tested on: BLM-induced lung fibrosis in mice; assay: Bleomycin (BLM)-induced lung fibrosis mice model; format: in vivo, C57BL/6JNarl mice; details: for fibrosis score, Mean ± SEM: H&E histology day 39
Method: FIGS. 8 (A) and (B) show the effect of L056 effect on fibrosis score of BLM-induced lung fibrosis in mice. C57BL/6 mice (8 weeks) were treated with bleomycin (BLM, 0.05 U/50 μl) or PBS (50 μl) by endotracheal administration. […] On day 39, the mice were sacrificed and, the histologic analysis of lung tissue was performed by hematoxylin-eosin (H&E) staining (original magnification, x100). […] (A), Histology fibrosis score plot; (B), H&E staining plot.
FIG. 9 (A) to (D) show the inhibitory effects on pro-fibrogenic mediators, collagen, CTGF, fibronectin and […], respectively. (A), H&E staining plot for collagen; (B), H&E staining plot for CTGF; (C), H&E staining plot for fibronectin; (D), H&E staining plot for α-SMA.
C57BL/6JNarl mice (8 weeks) were treated with bleomycin (BLM, 0.05 U/50 μl) or PBS (50 μl) by endotracheal administration. […] On day 39, the mice were sacrificed, and the histologic analysis of lung tissue was performed by hematoxylin-eosin (H&E) staining (original magnification, x100).

[4] = BLM mice, 25 mg (mg/kg/day, q.d., oral, days 10 to 38)
[5] = BLM mice, 50 mg (mg/kg/day, q.d., oral, days 10 to 38)
[6] = BLM mice, 100 mg (mg/kg/day, q.d., oral, days 10 to 38)

O=C(Nc1ccncc1)c1ccc(CNC2=C(Cl)C(=O)c3ccccc3C2=O)cc1 [Example L056, 4-(((3-chloro-1,4-dioxo-1,4-dihydronaphthalen-2-yl)amino)methyl)-N-(pyridin-4-yl)benzamide]
TGF-β-induced collagen production/expression [1]: significantly inhibited
TGF-β-induced collagen production/expression ([1]; listed as MPTOL056): inhibited
TGF-β-induced fibronectin expression [2]: significantly inhibited
Efficacy % (reduction of fibrosis score) [3, 4]: 50.94%
fibrosis score, Mean ± SEM [3, 4]: 3.27 ± 0.03
Efficacy % (reduction of fibrosis score) [3, 5]: 83.90%
fibrosis score, Mean ± SEM [3, 5]: 2.03 ± 0.21
Efficacy % (reduction of fibrosis score) [3, 6]: 67.38%
fibrosis score, Mean ± SEM [3, 6]: 2.65 ± 0.17
efficacy in the inhibition compared with PBS control ([3]; BLM mice, FIG. 8(B)): significantly higher than the PBS control
pro-fibrogenic mediators expression (collagen, CTGF, fibronectin, α-SMA) in lung ([3]; bleomycin-induced mice lung fibrosis model, FIG. 9): inhibited
inhibition of BLM-induced lung fibrosis (in words) ([3]; mice, 25, 50, 100 mg/kg/day oral, FIG. 8(A)): inhibits BLM-induced lung fibrosis in a dose-dependent manner
